Source: patent publication US20020169111A1, “Reversal of multidrug resistance in human colon carcinoma cells” (American Cyanamid Comany, priority 1998, published 2002)
Values joined by “and” are separate entries in the source; they are usually repeats but may differ in a detail not shown here. Equal values may be shown once. Read-outs that look alike come from different tables or passages of the source.

Legend:
MCF-7 cells = experiment: Dose modifying factor of FTC (SRB, EC50 ratio); assay type: cell-based, human; conditions: for Dose modifying factor (5 μM FTC): MCF-7 (untransfected, Table 11)
Description: (§1) Cell survival was estimated after 3 days using the SRB assay. Cell survival was determined by the SRB assay and EC50 values were determined from toxicity curves. The dose modifying factor (DMF) is the ratio of EC50 values obtained in the absence and presence of reversal agent. Maximum DMF values (shown in parentheses) is the ratio of EC50 values of resistant and sensitive cells in the absence of the reversal agent. This value is obtained when resistance is reversed completely, and is the equivalent of the relative resistance.
(§2) In order to determine the utility of FTC as a reversal agent in other multidrug resistant cell lines, FTC was tested in two breast cancer cell lines which show a multidrug resistant phenotype with no overexpression of P-gp or MRP.
(§3) Cell survival was estimated after 3 days using the SRB assay, and EC50 values were determined from cytotoxicity curves.

MCF 7/AdVp cells = assay type: cell-based, human; conditions: MCF 7/AdVp; 5 μM FTC with Paclitaxel
Description: as §1, §2

A549 = experiment: Sensitization of unselected cells to mitoxantrone; assay type: cell-based; conditions: A549 non small cell lung carcinoma, not selected
S1 cells [1] = experiment: Drug accumulation analysis with [14C] drug; assay type: cell-based, human; conditions: 90 minutes
Description: (§4) To determine the mechanism of resistance, drug resistant and sensitive cells were incubated with radioactive analogues of antitumor agents and cell-associated radioactivity was measured by scintillation counting. Alternatively, surrogates of chemotherapeutic drugs may be used. The surrogate has no antitumor activity itself but interacts with the cancer cell proteins such as P-gp or MRP in a similar manner as an anticancer drug. The surrogate chemotherapeutic drug would have a property such as fluorescence which is useful for determining the drug resistance mechanisms such as efflux.
(§5) Cells were plated in 60 mm dishes (1×10^6 cells per dish) or in 24 well clusters (2 ×10^5 cells per well) and allowed to grow for 1-2 days. […] Drugs used were [^14C]-mitoxantrone (Amersham, 1 or 5 μM; specific activity 66 mCi/mmol) or [^14C]-doxorubicin (Amersham, 0.5 or 3 μM; specific activity 50-62 mCi/mmol ). […] Unbound drug was removed by washing twice in ice-cold phosphate buffered saline (PBS), cells were solubilized in 2 N NaOH at 37° C. for 1-2 hours, and analyzed by scintillation counting. Results were normalized to cell protein content measured by a Lowry assay.
(§6) The cells were then washed, solubilized, and counted in a scintillation counter. Values are mean disintegration per minute per μg protein of triplicate determinations ± standard deviation.

S1-M1-3.2 cells [2] = experiment: Drug accumulation analysis with [14C] drug; assay type: cell-based, human; conditions: S1-M1-3.2 cells
Description: as §4, §5, §6

S1-B1-20 cells = experiment: Drug accumulation analysis with [14C] drug; assay type: cell-based, human; conditions: 90 minutes
Description: as §4, §5, §6

S1-M1-3.2 cells [3] = conditions: for Per Cent Survival Alone: 3 days; for Difference Score: survival alone minus survival with 3.2 μM mitoxantrone
Procedure, shortened: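 Cells grown in medium with 5% FBS received reversal agents at 0.1-80 μM (triplicate per dose), with or without the antitumor agent, plus reversal agent-only wells; survival by SRB assay. Difference Score = % survival with drug alone minus % survival with drug plus antitumor agent.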

S1 cells [4] = experiment: Dose modifying factor of FTC (SRB, EC50 ratio); assay type: cell-based, human
Description: as §1

S1-M1-3.2 cells [5] = experiment: Dose modifying factor of FTC (SRB, EC50 ratio); assay type: cell-based, human; conditions: S1-M1 cells
Description: as §1

MCF-7/BCRP cells = experiment: Dose modifying factor of FTC in BCRP-transfected cells; assay type: cell-based, human; conditions: MCF-7/BCRP
Description: as §3

HL-60/AR cells = assay type: cell-based; conditions: for Dose modifying factor: HL-60/AR
Description: as §1

HL-60 cells = experiment: Dose modifying factor of FTC (SRB, EC50 ratio); assay type: cell-based; conditions: for Dose modifying factor: HL-60
Description: as §1

COc1ccc2c3c([nH]c2c1)[C@H](C=C(C)C)N1C(=O)[C@@H]2CCCN2C(=O)[C@@H]1C3 [Fumitremorgin C]
Dose modifying factor (MCF-7 cells; MCF 7 (row above MCF 7/AdVp), 5 μM FTC with Doxorubicin): 2.0 | Dose modifying factor (MCF-7 cells; MCF 7 (row above MCF 7/AdVp), 5 μM FTC with Mitoxantrone): 7.5 | Dose modifying factor (MCF-7 cells; MCF 7 (row above MCF 7/AdVp), 5 μM FTC with Paclitaxel): 1.0 | Dose modifying factor (MCF-7 cells; MCF 7 (row above MCF 7/mtxR), 5 μM FTC with Doxorubicin): 1.0 | Dose modifying factor (MCF-7 cells; MCF 7 (row above MCF 7/mtxR), 5 μM FTC with Mitoxantrone): 1.7 | Dose modifying factor (MCF-7 cells; MCF 7 (row above MCF 7/mtxR), 5 μM FTC with Paclitaxel): 0.8 | Dose modifying factor (5 μM FTC) (MCF-7 cells; with Doxorubicin): 1.0 | Dose modifying factor (5 μM FTC) (MCF-7 cells; with Mitoxantrone): 2.5 | Dose modifying factor (5 μM FTC) (MCF-7 cells; with Paclitaxel): 0.7 | Dose modifying factor (5 μM FTC) (MCF-7 cells; with Topotecan): 5.6 | Reversal by FTC (fold), range over drugs (MCF-7 cells; parental unselected MCF-7 cells): 0.8-1.7 fold | reversal by FTC (fold), mitoxantrone and topotecan (MCF-7 cells; untransfected MCF-7 cells, 5 μM FTC): 2.5-5.6 fold | Dose modifying factor (MCF 7/AdVp cells): 0.7 (10.7) | sensitization to mitoxantrone (in words) (A549): can be sensitized to mitoxantrone | Doxorubicin Drug Accumulation with 1 μM FTC (S1 cells [1]; [14C] doxorubicin): 111 ± 15 DPM/μg protein | Mitoxantrone Drug Accumulation with 1 μM FTC (S1 cells [1]; [14C] mitoxantrone): 2246 ± 233 DPM/μg protein | increase of amount of doxorubicin retained (S1-M1-3.2 cells [2]; 1 μM FTC): 3.4 fold | increase of amount of mitoxantrone retained (S1-M1-3.2 cells [2]; 1 μM FTC): 2 fold | Doxorubicin Drug Accumulation with 1 μM FTC (S1-M1-3.2 cells [2]; [14C] doxorubicin, 90 minutes): 65 ± 17 DPM/μg protein | Mitoxantrone Drug Accumulation with 1 μM FTC (S1-M1-3.2 cells [2]; [14C] mitoxantrone, 90 minutes): 2220 ± 147 DPM/μg protein | Doxorubicin Drug Accumulation with 1 μM FTC (S1-B1-20 cells; [14C] doxorubicin): 26 ± 1 DPM/μg protein | Mitoxantrone Drug Accumulation with 1 μM FTC (S1-B1-20 cells; [14C] mitoxantrone): 1189 ± 53 DPM/μg protein | concentration giving 40% cell death (compound alone) (S1-M1-3.2 cells [3]; S1-M1-3.2 cells): greater than 80 μM | toxicity alone (in words) (S1-M1-3.2 cells [3]; S1-M1-3.2 cells, dose range tested 0.1-80 μM): No toxicity | Per Cent Survival with 3.2 μM mitoxantrone (S1-M1-3.2 cells [3]; S1-M1-3.2 cells, drug 0.1 μM): 95 ± 4 Per Cent | Per Cent Survival Alone (S1-M1-3.2 cells [3]; S1-M1-3.2 cells, drug 0.1 μM alone): 105 ± 4 Per Cent | Difference Score (S1-M1-3.2 cells [3]; S1-M1-3.2 cells, drug 0.1 μM): 10 | Per Cent Survival with 3.2 μM mitoxantrone (S1-M1-3.2 cells [3]; S1-M1-3.2 cells, drug 0.5 μM): 39 ± 10 Per Cent | Per Cent Survival Alone (S1-M1-3.2 cells [3]; S1-M1-3.2 cells, drug 0.5 μM alone): 105 ± 2 Per Cent | Difference Score (S1-M1-3.2 cells [3]; S1-M1-3.2 cells, drug 0.5 μM): 66 | Per Cent Survival with 3.2 μM mitoxantrone (S1-M1-3.2 cells [3]; S1-M1-3.2 cells, drug 1 μM): 30 ± 1 Per Cent | Per Cent Survival Alone (S1-M1-3.2 cells [3]; S1-M1-3.2 cells, drug 1 μM alone): 103 ± 1 Per Cent | Difference Score (S1-M1-3.2 cells [3]; S1-M1-3.2 cells, drug 1 μM): 73 | Per Cent Survival with 3.2 μM mitoxantrone (S1-M1-3.2 cells [3]; S1-M1-3.2 cells, drug 5 μM): 24 ± 4 Per Cent | Per Cent Survival Alone (S1-M1-3.2 cells [3]; S1-M1-3.2 cells, drug 5 μM alone): 99 ± 5 Per Cent | Difference Score (S1-M1-3.2 cells [3]; S1-M1-3.2 cells, drug 5 μM): 75 | Per Cent Survival with 3.2 μM mitoxantrone (S1-M1-3.2 cells [3]; S1-M1-3.2 cells, drug 10 μM): 22 ± 6 Per Cent | Per Cent Survival Alone (S1-M1-3.2 cells [3]; S1-M1-3.2 cells, drug 10 μM alone): 99 ± 1 Per Cent | Difference Score (S1-M1-3.2 cells [3]; S1-M1-3.2 cells, drug 10 μM): 77 | Per Cent Survival with 3.2 μM mitoxantrone (S1-M1-3.2 cells [3]; S1-M1-3.2 cells, drug 20 μM): 17 ± 10 Per Cent | Per Cent Survival Alone (S1-M1-3.2 cells [3]; S1-M1-3.2 cells, drug 20 μM alone): 104 ± 4 Per Cent | Difference Score (S1-M1-3.2 cells [3]; S1-M1-3.2 cells, drug 20 μM): 87 | Per Cent Survival with 3.2 μM mitoxantrone (S1-M1-3.2 cells [3]; S1-M1-3.2 cells, drug 40 μM): 14 ± 11 Per Cent | Per Cent Survival Alone (S1-M1-3.2 cells [3]; S1-M1-3.2 cells, drug 40 μM alone): 108 ± 5 Per Cent | Difference Score (S1-M1-3.2 cells [3]; S1-M1-3.2 cells, drug 40 μM): 94 | Per Cent Survival with 3.2 μM mitoxantrone (S1-M1-3.2 cells [3]; S1-M1-3.2 cells, drug 80 μM): 13 ± 11 Per Cent | Per Cent Survival Alone (S1-M1-3.2 cells [3]; S1-M1-3.2 cells, drug 80 μM alone): 94 ± 4 Per Cent | Difference Score (S1-M1-3.2 cells [3]; S1-M1-3.2 cells, drug 80 μM): 81 | Toxicity (>20%) (S1-M1-3.2 cells [3]; compound alone, concentration that causes greater than 20% cell death of S1-M1-3.2 cells): >80.0 µM | Toxicity (>20%) (μM) (S1-M1-3.2 cells [3]; compound alone, concentration that causes greater than 20% cell death of S1-M1-3.2 cells, listed as FTC): greater than 80.0 μM | IC50 (S1-M1-3.2 cells [3]; read-out: IC50 (μM), resensitizing S1-M1-3.2 cells to mitoxantrone, with 3.2 μM mitoxantrone, 50% cancer cell death, listed as FTC): 0.35 µM and 0.3 µM | Dose modifying factor (S1 cells [4]; 5 μM FTC with Doxorubicin): 1 | Dose modifying factor (S1 cells [4]; 5 μM FTC with Mitoxantrone): 1 | Dose modifying factor (S1 cells [4]; 5 μM FTC with Paclitaxel): 1.4 | Dose modifying factor (S1 cells [4]; 5 μM FTC with Topotecan): 0.9 | Dose modifying factor (S1-M1-3.2 cells [5]; 5 μM FTC with Doxorubicin, listed as FTC): 26 and 25.9 | Dose modifying factor (S1-M1-3.2 cells [5]; 5 μM FTC with Mitoxantrone): 93 | Dose modifying factor (S1-M1-3.2 cells [5]; 5 μM FTC with Paclitaxel): 1.1 | Dose modifying factor (S1-M1-3.2 cells [5]; 5 μM FTC with Topotecan): 24 | Dose modifying factor (5 μM FTC) (MCF-7/BCRP cells; with Doxorubicin): 6.6 | Dose modifying factor (5 μM FTC) (MCF-7/BCRP cells; with Mitoxantrone): 29.4 | Dose modifying factor (5 μM FTC) (MCF-7/BCRP cells; with Paclitaxel): 1.1 | Dose modifying factor (5 μM FTC) (MCF-7/BCRP cells; with Topotecan): 6.5 | reversal activity of FTC (fold), range over drugs (HL-60/AR cells; HL60/AR): 2.6-3.3 fold | Dose modifying factor (HL-60/AR cells; 5 μM FTC with Doxorubicin): 2.8 (92.3) | Dose modifying factor (HL-60/AR cells; 5 μM FTC with Mitoxantrone): 3.3 (53) | Dose modifying factor (HL-60/AR cells; 5 μM FTC with Paclitaxel): 2.6 (5.1) | reversal of resistance in MRP-positive HL60/AR cells (in words) (HL-60/AR cells; doxorubicin-selected): did not reverse resistance | Dose modifying factor (HL-60 cells; 5 μM FTC with Doxorubicin): 2.1 | Dose modifying factor (HL-60 cells; 5 μM FTC with Mitoxantrone): 1.3 | Dose modifying factor (HL-60 cells; 5 μM FTC with Paclitaxel): 1.0 | reversal activity of FTC (fold), range over drugs (HL-60 cells; parental line HL-60): 1.0-2.1 fold
